Measurements taken from US20260083851A1 (AVILAR THERAPEUTICS, INC., priority 2022, published 2026).
Read-outs that look alike come from different tables or passages of the source.

Biological target: T1, ASGP receptor (biotinylated ASGPR) (Homo sapiens, UniProt P07306)
T1 construct: biotin (biotinylated)
T1 sequence (P07306 1-291): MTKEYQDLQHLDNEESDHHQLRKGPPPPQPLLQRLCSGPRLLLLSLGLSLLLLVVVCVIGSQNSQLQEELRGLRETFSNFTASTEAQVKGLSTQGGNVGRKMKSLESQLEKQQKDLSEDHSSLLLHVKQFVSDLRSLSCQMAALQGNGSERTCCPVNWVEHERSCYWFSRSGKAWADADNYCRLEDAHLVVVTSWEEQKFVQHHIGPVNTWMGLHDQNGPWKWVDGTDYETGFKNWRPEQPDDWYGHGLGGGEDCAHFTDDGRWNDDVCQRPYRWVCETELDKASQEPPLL
Type: binding
Conditions: SPR, Biacore 8K, 25° C., read-out: ASGPR KD

Kd (Table 1C) [µM] | Compound | further results
< 10 | O[C@@H]1[C@H](O)[C@@H](Nc2cccc(C(F)(F)F)n2)CO[C@@H]1CN1CCC1 [A279] | 
< 10 | CC(C)(C)OC(=O)N1CCC(Cc2ccc(OC[C@H]3OC[C@H](Oc4cccc(C(F)(F)F)n4)[C@@H](O)[C@H]3O)nn2)CC1 [A280] | 
< 10 | O=C(O)c1ccc(OC[C@@]23CO[C@@H](O2)[C@H](Nc2cncc(C(F)(F)F)n2)[C@@H](O)[C@H]3O)nn1 [A281] | 
< 10 | O[C@@H]1[C@H](O)[C@@H](Oc2cccc(C(F)(F)F)n2)CO[C@@H]1CN1CCN(c2ccncn2)CC1 [A284] | 
< 10 | O=C1CCCN1C[C@H]1OC[C@H](Nc2cccc(C(F)(F)F)n2)[C@@H](O)[C@H]1O [A285] | 
< 10 | C[C@H]1O[C@H](C#CCO)[C@H](Oc2cccc(C(F)(F)F)n2)[C@@H](O)[C@H]1O [A286] | 
< 10 | O[C@@H]1[C@H](O)[C@@H](Oc2cccc(C(F)(F)F)n2)CO[C@@H]1COc1ccccn1 [A287] | 
< 10 | O[C@@H]1[C@H](O)[C@@H](Oc2cccc(C(F)(F)F)n2)CO[C@@H]1COc1ccnnc1 [A288] | 
< 10 | O[C@@H]1[C@H](O)[C@@H](Oc2cccc(C(F)(F)F)n2)CO[C@@H]1COc1cncnc1 [A289] | 
< 10 | O=C1c2occc2CN1C[C@H]1OC[C@H](Oc2cccc(C(F)(F)F)n2)[C@@H](O)[C@H]1O [A290] | 
< 10 | O=C1c2sccc2CN1C[C@H]1OC[C@H](Oc2cccc(C(F)(F)F)n2)[C@@H](O)[C@H]1O [A291] | 
< 10 | O[C@@H]1[C@H](O)[C@@H](Oc2cccc(C(F)(F)F)n2)CO[C@@H]1COc1ccncc1 [A292] | 
< 10 | O[C@@H]1[C@H](O)[C@@H](Oc2cccc(C(F)(F)F)n2)CO[C@@H]1CN1CCN(c2cncnc2)CC1 [A293] | 
< 10 | CC(C)(C)OC(=O)N1CCC(Cc2ccc(OC[C@H]3OC[C@H](Oc4cccc(C(F)(F)F)n4)[C@@H](O)[C@H]3O)nn2)C1 (stereo partly shown) [A294] | 
< 10 | O[C@@H]1[C@@H](Nc2cccc(C(F)(F)F)n2)[C@H]2OC[C@](COc3cccnn3)(O2)[C@@H]1O [A295] | 
< 10 | O[C@@H]1[C@@H](Nc2cccc(C(F)(F)F)n2)[C@H]2OC[C@](COc3cnccn3)(O2)[C@@H]1O [A296] | 
< 10 | O=C(O)COCCOCC(=O)NC[C@H]1OC[C@H](Oc2cccc(C(F)(F)F)n2)[C@@H](O)[C@H]1O [A298] | 
< 10 | O=C(c1ccc(Cl)cc1)[C@H]1OC[C@H](Oc2cccc(C(F)(F)F)n2)[C@@H](O)[C@H]1O [A299] | 
< 10 | O[C@@H]1[C@H](O)[C@@H](Oc2cccc(C(F)(F)F)n2)CO[C@@H]1COc1cccnc1 [A301] | 
< 10 | CN1CC2CN(C[C@H]3OC[C@H](Oc4cccc(C(F)(F)F)n4)[C@@H](O)[C@H]3O)CCN2C1=O (stereo partly shown) [A302] | 
< 10 | C[C@H]1O[C@@H](c2ccc(N3CCNCC3)cc2)[C@H](Oc2cccc(C(F)(F)F)n2)[C@@H](O)[C@H]1O [A303] | 
< 10 | O[C@@H]1[C@H](O)[C@@H](Oc2cccc(C(F)(F)F)n2)CO[C@@H]1CSc1ccccc1 [A304] | 
< 10 | O=C(O)COCCOCC(=O)NC[C@@]12CO[C@@H](O1)[C@H](Nc1cncc(C(F)(F)F)n1)[C@@H](O)[C@H]2O [A305] | 
< 10 | O[C@@H]1[C@@H](Oc2cccc(C(F)(F)F)n2)COC(C(F)(F)c2ccc(Cl)cc2)[C@@H]1O (stereo partly shown) [A306] | 

Kd (Table 1C) [µM] | Compound | further results
< 10 | O[C@@H]1[C@H](O)[C@@H](Oc2cccc(C(F)(F)F)n2)CO[C@@H]1CSc1ccccn1 [A307] | 
< 10 | O[C@@H]1[C@@H](Oc2cccc(C(F)(F)F)n2)COC(C(F)c2ccc(Cl)cc2)[C@@H]1O (stereo partly shown) [A308] | 
< 10 | O=C(O)c1cnc(OC[C@H]2OC[C@H](Nc3cccc(C(F)(F)F)n3)[C@@H](O)[C@H]2O)cn1 [A309] | 
< 10 | O=S(=O)(C[C@H]1OC[C@H](Oc2cccc(C(F)(F)F)n2)[C@@H](O)[C@H]1O)c1ccccc1 [A310] | 
< 10 | [O-][S+](C[C@H]1OC[C@H](Oc2cccc(C(F)(F)F)n2)[C@@H](O)[C@H]1O)c1ccccc1 (stereo partly shown) [A311] | 
< 10 | [O-][n+]1c(O[C@H]2CO[C@H](CSc3ccccc3)[C@H](O)[C@@H]2O)cccc1C(F)(F)F [A312] | 
< 10 | CC[C@]1(COc2ccc(C(=O)O)nn2)O[C@H](O)[C@H](NC(=O)C(F)(F)F)[C@@H](O)[C@H]1O [A313] | 
< 10 | CC[C@]1(COc2ccc(C(=O)O)nn2)O[C@H](O)[C@H](Nc2cccc(C(F)(F)F)n2)[C@@H](O)[C@H]1O [A314] | 
< 10 | COC(=O)c1ccc(OC[C@H]2O[C@H](C)[C@H](O)[C@H](O)[C@H]2Oc2cccc(C(F)(F)F)n2)nn1 [A315] | 
< 10 | CC[C@H]1O[C@H](C)[C@H](O)[C@H](O)[C@H]1Oc1cccc(C(F)(F)F)n1 [A316] | 
< 10 | O=C(O)c1ccc(OC[C@H]2OC[C@H](Nc3cccc(C(F)(F)F)n3)[C@@H](O)[C@H]2O)nn1 [A317] | 
< 10 | C[C@H]1O[C@H](CCCO)[C@H](Oc2cccc(C(F)(F)F)n2)[C@@H](O)[C@H]1O [A318] | 
< 10 | C[C@H]1O[C@H](C#CCOc2cccnn2)[C@H](Oc2cccc(C(F)(F)F)n2)[C@@H](O)[C@H]1O [A319] | 
< 10 | COC(=O)c1ccc(C#C[C@H]2O[C@H](C)[C@H](O)[C@H](O)[C@H]2Oc2cccc(C(F)(F)F)n2)nn1 [A321] | 
< 10 | C[C@H]1O[C@H](C#CCOc2ccc(C(=O)O)nn2)[C@H](Oc2cccc(C(F)(F)F)n2)[C@@H](O)[C@H]1O [A322] | 
< 10 | Nc1ccc(OC[C@H]2OC[C@H](Oc3cccc(C(F)(F)F)n3)[C@@H](O)[C@H]2O)nn1 [A323] | 
< 10 | O=C(O)c1ccc(OC[C@H]2OC[C@H](Nc3nccc(C(F)(F)F)n3)[C@@H](O)[C@H]2O)nn1 [A325] | 
< 10 | NCCOCCOCC(=O)NC[C@H]1OC[C@H](Oc2cccc(C(F)(F)F)n2)[C@@H](O)[C@H]1O [A326] | 
< 10 | OC[C@H]1O[C@H](c2ccccc2)[C@H](Oc2cccc(C(F)(F)F)n2)[C@@H](O)[C@H]1O [A329] | 
< 10 | O[C@@H]1[C@H](O)[C@@H](Oc2cccc(C(F)(F)F)n2)[C@@H](c2ccccc2)O[C@@H]1C(F)F [A330] | 
< 10 | C[C@H]1O[C@H](C#Cc2ccc(C(=O)O)nn2)[C@H](Oc2cccc(C(F)(F)F)n2)[C@@H](O)[C@H]1O [A331] | 
< 10 | C[C@H]1O[C@H](c2cc[nH]n2)[C@H](Oc2cccc(C(F)(F)F)n2)[C@@H](O)[C@H]1O [A332] | 
< 10 | COC(=O)/C=C/[C@H]1O[C@H](C)[C@H](O)[C@H](O)[C@H]1Oc1cccc(C(F)(F)F)n1 [A333] | 
< 10 | CC(=O)[C@H]1O[C@H](C)[C@H](O)[C@H](O)[C@H]1Oc1cccc(C(F)(F)F)n1 [A334] | 

Kd (Table 1C) [µM] | Compound | further results
< 10 | C[C@H]1O[C@@H](c2ncnc3c2ncn3Cc2ccccc2)[C@H](Oc2cccc(C(F)(F)F)n2)[C@@H](O)[C@H]1O [A335] | 
< 10 | C[C@H]1O[C@@H](c2ccccn2)[C@H](Oc2cccc(C(F)(F)F)n2)[C@@H](O)[C@H]1O [A336] | 
< 10 | C[C@H]1O[C@@H](c2ncncc2F)[C@H](Oc2cccc(C(F)(F)F)n2)[C@@H](O)[C@H]1O [A337] | 
< 10 | C[C@H]1O[C@H](c2ncncc2F)[C@H](Oc2cccc(C(F)(F)F)n2)[C@@H](O)[C@H]1O [A338] | 
< 10 | CC(O)[C@H]1O[C@H](C)[C@H](O)[C@H](O)[C@H]1Oc1cccc(C(F)(F)F)n1 (stereo partly shown) [A339] | 
< 10 | C[C@H]1O[C@H](c2ccc3c(c2)CCC3)[C@H](Oc2cccc(C(F)(F)F)n2)[C@@H](O)[C@H]1O [A340] | 
< 10 | C[C@H]1O[C@H](c2ccc3c(c2)CNC3)[C@H](Oc2cccc(C(F)(F)F)n2)[C@@H](O)[C@H]1O [A341] | 
< 10 | C[C@H]1O[C@H](c2cccc3ccccc23)[C@H](Oc2cccc(C(F)(F)F)n2)[C@@H](O)[C@H]1O [A342] | 
< 10 | C[C@H]1O[C@H](c2ccc3ccccc3n2)[C@H](Oc2cccc(C(F)(F)F)n2)[C@@H](O)[C@H]1O [A343] | 
< 10 | C[C@H]1O[C@@H](c2ccc3ccccc3n2)[C@H](Oc2cccc(C(F)(F)F)n2)[C@@H](O)[C@H]1O [A344] | 
< 10 | O[C@@H]1[C@@H](Oc2cccc(C(F)(F)F)n2)CSC[C@@H]1O [A345] | 
 | C[C@H]1O[C@H](c2cc(-c3ccccc3)no2)[C@H](Oc2cccc(C(F)(F)F)n2)[C@@H](O)[C@H]1O [A346] | Kd (Table 1D): < 10 µM
 | Cc1nnc(N2C[C@H](Oc3cccc(C(F)(F)F)n3)[C@@H](O)[C@@H](O)C2)s1 [A351] | Kd (Table 1D): < 10 µM
 | Cc1nnc(N2C[C@H](Oc3cccc(C(F)(F)F)n3)[C@@H](O)[C@@H](O)C2)o1 [A352] | Kd (Table 1D): < 10 µM
 | O[C@@H]1[C@@H](Oc2cccc(C(F)(F)F)n2)CN(c2noc(-c3ccccc3)n2)C[C@@H]1O [A353] | Kd (Table 1D): < 10 µM
 | O=C(OCc1ccccc1)N1C[C@H](O)[C@H](O)[C@@H]([S@@+]([O-])c2cccc(C(F)(F)F)n2)C1 [A354] | Kd (Table 1D): 10 to 100 µM
 | O=C(OCc1ccccc1)N1C[C@H](O)[C@H](O)[C@@H]([S@+]([O-])c2cccc(C(F)(F)F)n2)C1 [A355] | Kd (Table 1D, numeric bound): > 30 µM
 | O=C(OCc1ccccc1)N1C[C@H](O)[C@H](O)[C@@H](S(=O)(=O)c2cccc(C(F)(F)F)n2)C1 [A356] | Kd (Table 1D, numeric bound): > 30 µM
 | CC(=O)NNC(=O)N1C[C@H](Oc2cccc(C(F)(F)F)n2)[C@@H](O)[C@@H](O)C1 [A357] | Kd (Table 1D): < 10 µM
 | O=C(OCc1ccccc1)N1C[C@H](O)[C@H](O)[C@@H](S(=O)(=O)c2cncc(C(F)(F)F)n2)C1 [A358] | Kd (Table 1D, numeric bound): > 30 µM
 | O[C@@H]1[C@@H](Oc2cccc(C(F)(F)F)n2)CN(c2ncon2)C[C@@H]1O [A359] | Kd (Table 1D): < 10 µM
 | CCOC(=O)c1nc(N2C[C@H](Oc3cccc(C(F)(F)F)n3)[C@@H](O)[C@@H](O)C2)no1 [A360] | Kd (Table 1D): < 10 µM
